From US20060025346A1, “Permeability enhancer” (priority 2004, published 2006)
Entries after “also recorded” stand apart in the source; their conditions may differ.

How the values were obtained:
Caco-2 cell monolayer = conditions: literature reports; cited from earlier work

For `CCCCCCCCCC(=O)[O-].[Na+]` [sodium caprate], the “permeability enhancing effect on high molecular weight model substance FD-10 (relative Papp)” value (MDCK cells) was “nonspecifically increased the permeability; also recorded: marked permeability enhancing effect”, the “permeability enhancing effect on low molecular weight model substance Flu (relative Papp)” value (MDCK cells) was “nonspecifically increased the permeability; also recorded: marked permeability enhancing effect” and the “permeability enhancing effect on low molecular weight model substance LY (relative Papp)” value (MDCK cells) was “nonspecifically increased the permeability; also recorded: marked permeability enhancing effect”. The “side effects / cell damage due to relatively strong ability to open tight junctions” value (Caco-2 cell monolayer) was “risk of cell damage have been observed”.
